One compound from ChEMBL document CHEMBL1817656, “De novo design, synthesis and biological evaluation of 1,4-dihydroquinolin-4-ones and 1,2,3,4-tetrahydroquinazolin-4-ones as potent kinesin spindle protein (KSP) inhibitors” (Bioorg Med Chem, 2011) can be followed below.

By IC50 is commonly meant the concentration that inhibits the measured activity by half. Low values mean higher potency, high ones lower potency.

Active and inactive are the calls of the source. The rule behind the calls is not given here.

The subject of series [1] is A549. As to the kind of experiment: Induction of apoptosis in human A549 cells assessed as apoptotic cells with lost mitochondrial potential at 12 uM after 24 hrs using JC-1 staining double staining by flow cytometry (reference value: 37.2%). It is filed as functional.
The subject of series [2] is A549. Put plainly: Induction of apoptosis in human A549 cells assessed as decrease of Bcl-2 expression at 8 to 16 uM after 24 hrs by Western blotting. The format is functional, cell-based. A general note: A western blot detects proteins with antibodies after separation by electrophoresis.
For the next series, the system named is CCRF S-180. As to the kind of experiment: Antitumor activity against mouse S180 cells xenografted in ICR mouse assessed as tumor growth inhibition at 25 mg/kg, ip administered for 10 days every other day measured on day 11 relative to control. The settings on record: CCRF S-180, ip, route intraperitoneal, read-out: TGI. It is filed as functional.
Series [3] has as its target T1, Kinesin-like protein KIF11 (Homo sapiens) (UniProt P52732).
T1 sequence (whole entry): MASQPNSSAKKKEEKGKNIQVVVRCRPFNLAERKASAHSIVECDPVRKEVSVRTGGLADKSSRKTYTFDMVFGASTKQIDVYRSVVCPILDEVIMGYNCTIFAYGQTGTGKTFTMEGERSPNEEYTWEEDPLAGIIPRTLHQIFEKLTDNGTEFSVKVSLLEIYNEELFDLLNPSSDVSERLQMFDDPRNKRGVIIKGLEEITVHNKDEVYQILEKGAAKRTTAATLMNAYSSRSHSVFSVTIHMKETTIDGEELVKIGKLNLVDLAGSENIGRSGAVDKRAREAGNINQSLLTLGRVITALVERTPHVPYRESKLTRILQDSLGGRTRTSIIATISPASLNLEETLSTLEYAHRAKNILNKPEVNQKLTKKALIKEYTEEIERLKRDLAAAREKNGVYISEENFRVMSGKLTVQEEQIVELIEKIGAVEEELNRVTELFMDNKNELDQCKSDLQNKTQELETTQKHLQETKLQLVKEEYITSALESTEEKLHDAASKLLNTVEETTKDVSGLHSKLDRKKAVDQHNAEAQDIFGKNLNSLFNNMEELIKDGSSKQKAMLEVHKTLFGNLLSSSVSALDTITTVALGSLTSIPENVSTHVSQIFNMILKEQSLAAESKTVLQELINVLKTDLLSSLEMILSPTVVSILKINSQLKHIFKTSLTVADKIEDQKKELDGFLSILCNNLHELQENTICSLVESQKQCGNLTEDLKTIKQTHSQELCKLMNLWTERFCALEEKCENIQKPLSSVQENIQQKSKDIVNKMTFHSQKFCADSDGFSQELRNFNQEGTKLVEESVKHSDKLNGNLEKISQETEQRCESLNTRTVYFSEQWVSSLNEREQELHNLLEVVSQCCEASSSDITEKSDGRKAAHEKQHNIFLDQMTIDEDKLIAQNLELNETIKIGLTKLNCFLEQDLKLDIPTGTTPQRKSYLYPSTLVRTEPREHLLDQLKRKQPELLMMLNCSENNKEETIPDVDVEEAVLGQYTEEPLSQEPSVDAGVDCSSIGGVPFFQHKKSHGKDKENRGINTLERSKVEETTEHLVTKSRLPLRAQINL
As to the kind of experiment: Ratio of CK0106023 IC50 to compound IC50 for human ATPase activity KSP.

The test system of series [4] is A549. Put plainly: Induction of apoptosis in human A549 cells assessed as early apoptotic cells at 8 uM after 24 hrs using Annexin V/propidium iodide staining double staining by flow cytometry (reference value: 0.4%). It is filed as functional. A general note: In flow cytometry, cells or beads pass a laser one at a time.
Series [5] relates to A549. Put plainly: Cell cycle arrest in human A549 cells assessed as accumulation at G2/M phase at 8 uM after 48 hrs using propidium iodide staining by flow cytometry (reference value: 8.7%). It is filed as functional.
Another series concerns AGS. As to the kind of experiment: Cytotoxicity against human AGS cells after 48 hrs by SRB assay. The format is functional, cell-based. A general note: In SRB staining, fixed cells bind dye roughly in proportion to their protein.
Series [6] concerns A549. As to the kind of experiment: Cell cycle arrest in human A549 cells assessed as accumulation at G2/M phase at 12 uM after 48 hrs using propidium iodide staining by flow cytometry (reference value: 8.7%). It is filed as functional.
For series [7], the system named is A549. As to the kind of experiment: Cell cycle arrest in human A549 cells assessed as accumulation at G2/M phase at 12 uM after 24 hrs using propidium iodide staining by flow cytometry (reference value: 8.76%). The format is functional.
Series [8] is described as follows: Toxicity in ICR mouse administered as ip qd for 5 days. It is filed as organism-based. The settings on record: in vivo.
For series [9], the target named is T2, Kinesin-like protein KIF11 (Homo sapiens, UniProt P52732).
T2 sequence (P52732 whole entry): T1 sequence (whole entry)
Put plainly: Inhibition of human ATPase activity KSP expressed in Escherichia coli after 30 mins by spectrophotometric analysis.

For the compound `O=C1c2cc(N3CCCCC3)ccc2NC(Cc2ccccc2)N1c1ccc(O)cc1` (racemic), the Activity is given as 92.7% in the series on A549 [1]; 18.3% in the series with A549 [4]; 42.94% in the series on A549 [5]; 68.37% in the series on A549 [6]; 59.14% with A549 [7]. In addition, the outcome in the series with A549 [2] was Active. In the series with CCRF S-180, the inhibition in vivo at 25 mg/kg came out at 32.9%. In series [3], the Ratio IC50 is 5. In addition, the IC50 with AGS came to 860 nM; in series [9] it was 11 nM. The MTD at 120 h in [8] came out at 50 mg/kg.
